Assay results published in US6635622B2, “Glycolipid derivative” (Kotobuki Pharmaceutical Co., Ltd., priority 2000, dated 2003).

Assays:
[1] = tested on: B16 mouse melanoma cells; experiment: Tumor metastasis inhibitory activity against B16 mouse melanoma (lung nodules); type: in vivo, C57BL/6 mouse; settings: p.o., lung surface nodules 14 days after B16 injection, vs control
[2] = tested on: pancreatic lymphocyte of mouse; experiment: Lymphocyte mixed culture reaction (3H-thymidine uptake, DNA synthesis); type: cell-based, BALB/C mouse; settings: concentration 1 ng/mL; cultured 3 days, 3H-TdR uptake 6 hours
Procedure: Experiment 1: Lymphocyte mixed culture reaction.
The pancreatic cells of BALB/C mouse were regulated to a concentration of 2×10^6 cells/ml with a culture medium of 10% FCS RPMI 1640, respectively. These cells (100 ul/well) and a sample (10 ul/well) were plated in a 96 well round-bottomed plate and cultured for 3 days under the condition of 37° C. and 5% CO2. Then, 3H-thymidine (3H-TdR) was added in a dose of 0.5 uCi/well. After 6 hours, the cells were harvested and subjected to the measurement of the uptake of 3H-TdR by a liquid scintillation counter. Thus, the DNA synthesis of pancreatic lymphocyte of mouse […].

Row | SMILES | Inhibition of metastasis (%) ([1]; dose 0.001 mg/kg) | Increase of DNA synthesis (%) [2] [%] | Inhibition of metastasis (%) ([1]; dose 1 mg/kg)
1 | CCCCCCCCCCCCCCCCCCCCCCCCCC(=O)NC(CC[C@H]1OC(CO)[C@H](O)C(O)C1O)C(O)C(O)CCCCCCCCCCCCCC (stereo partly drawn) [Compound 1, (3′S,4′S,5′R)-3′-N-Hexacosanoylamino-4′,5′-dihydroxy-nonadecane-α-C-D-galactopyranoside] | 65.3 | 54.6 | –
2 | CCCCCCCCCCCCCCCCCCCCCCCCCC(=O)NC(CS[C@H]1OC(CO)[C@H](O)C(O)C1O)C(O)C(O)CCCCCCCCCCCCCC (stereo partly drawn) [Compound 8, (2′S,3′S,4′R)-3′,4′-Dihydroxy-2′-N-hexacosanoylamino-octadecane-1′-thio-yl-α-C-D-galactopyranoside] | – | 35.4 | 80.8
